Assay [1] deals with Total Parental Nutrition (TPN) Piglet Model. The experiment in a line: Histology of small bowel, villous/crypt (V/C) ratio, in total parenteral nutrition (TPN) piglet model. Format: in vivo, piglets. On the procedure: (§1) One-week-old piglets were placed in heated (25-30° C.) cages. Jugular and duodenal catheters were surgically implanted as described in paragraph 2 (method and material) in Jain 2015. Subsequently, preconditioned jackets and ambulatory pumps for TPN (total parenteral nutrition) delivery were fitted. Animals were started on their randomly assigned groups to receive enteral nutrition (EN; n=11), intravenous total parenteral nutrition plus vehicle (TPN; n=8) or TPN plus compound 18 (Cpd 18; n=13). Cpd 18 and vehicle were administered as daily subcutaneous injections at a dose of either 0.008 mg/kg (n=2), 0.033 mg/kg (n=2), 0.066 mg/kg (n=2) or 0.133 mg/kg (n=7).
(§2) Enteral animals (EN) received a swine milk replacement formula (formula LitterLife as described in Jain 2015, paragraph 2.6). All other animals received total parenteral nutrition (Clinimix E from Baxter as described in Jain 2015, paragraph 2.6).
Segments of fresh tissue (2-3 cm) from the small intestine were fixed in 4% buffered formalin for 24 hours and then stored in 70% ethanol at room temperature for 24 hours. […] Using the small-bowel H&E slides, the mean villous height and crypt depth were quantified in vertically well-oriented villous-crypt columns with the slide reviewer blinded to the treatment to compute a villous/crypt (V/C) ratio for animals in each group.

Assay [2] has the same test system. The experiment in a line: Small intestine mass (weight per centimeter) in total parenteral nutrition (TPN) piglet model. The conditions noted are these: piglets on TPN. Format: in vivo. On the procedure: as §1, §2
Post-euthanasia (see Jain 2015, paragraph 2.7), the abdomen was opened, and the small intestine was removed. Small segments of the small bowel were sliced and weighed (see Jain 2015, paragraph 2.78). Tissue was then cut into smaller pieces, preserved for histology and snap-frozen in liquid nitrogen to be stored at −80° C. for analysis.

Starred links: 1 amine or outer side, 2 acyl side, 3 side chain; linkers in the order of their positions; H or OH if unused. Non-standard residues stand in square brackets, D forms with d. Groups on a side chain read outwards from the residue. *: point of attachment. C18 diacid = O=C(O)CCCCCCCCCCCCCCCCC(=O)*; γGlu = O=C(O)[C@H](CCC(=O)[*:2])N[*:1]; Aib = CC(C)(N)C(=O)O

As to “H-H[Aib]EGSFTSELATILDK([γGlu-C18 diacid])QAARDFIAWLIQHKITD-OH [Cpd 18]”, the “histological section of the small bowel, villi and crypts” value in assay [1] (piglet on TPN, 0.133 mg/kg for 14 days, FIG. 6 compared to FIG. 4) is “villi and crypts are comparable to the animal receiving enteral nutrition”. Further, the “V/C ratio of the small bowel” value in assay [1] (piglets on TPN, 0.133 mg/kg daily s.c., sacrifice on day 14, FIG. 3) is “completely preserved the V/C ratio to the same ratio seen in the animals on EN”. Also, the “mass of the proximal intestine (weight per centimeter)” value in assay [2] (daily subcutaneous injections 0.008, 0.033, 0.066 or 0.133 mg/kg, sacrifice on day 14, FIG. 1) is recorded as “preserved the mass in a dose-dependent fashion”. Also, the “mass of the distal intestine (weight per centimeter)” value in assay [2] (daily subcutaneous injections 0.008, 0.033, 0.066 or 0.133 mg/kg, sacrifice on day 14, FIG. 2) is listed as “preserved the mass in a dose-dependent fashion”. In addition, the “weight of the proximal intestine at the highest dose compared to animals on EN” value in assay [2] (highest dose (0.133 mg/kg daily s.c.), sacrifice on day 14, FIG. 1) is “approximately the same as in the animals on EN”. For the same substance, the “weight of the distal intestine at the highest dose, greater than that in the animals on TPN” value in assay [2] (highest dose (0.133 mg/kg daily s.c.), sacrifice on day 14, FIG. 2) is on record as “approximately 50%”.
